Here are results for 47 molecules from patent US20080045546A1, “Tetradydro-Naphthalene And Urea Derivatives” (priority 2003, published 2008).

One series has as its target T1, human VR1 (Homo sapiens, UniProt Q8NER1).
T1 construct: expressed in transfected cells
Description: Capsaicin-induced Ca2+ influx in the human VR1-transfected CHO cell line (Assay 1). The series is classed as cell-based. As to conditions: stimulation with 10 nM capsaicin; human VR1-CHOluc9aeq cells; read-out: activity class (IC50). From the text:
[Measurement of Capsaicin-induced Ca^2+ Influx in the Human VR1-transfected CHO Cell Line](Assay 1)
(1) Establishment of the Human VR1-CHOluc9aeq Cell Line
Human vanilloid receptor (hVR1) cDNA was cloned from libraries of axotomized dorsal root ganglia (WO 00/29577). The cloned hVR1 cDNA was constructed with pcDNA3 vector and transfected into a CHOluc9aeq cell line. The cell line contains aequorin and CRE-luciferase reporter genes as read-out signals. The transfectants were cloned by limiting dilution in selection medium (DMEM/F12 medium (Gibco BRL) supplemented with 10% FCS, 1.4 mM Sodium pyruvate, 20 mM HEPES, 0.15% Sodium bicarbonate, 100 U/ml penicillin, 100 μg/ml streptomycin, 2 mM glutamine, non-essential amino acids and 2 mg/ml G418). Ca^2+ influx was examined in the capsaicin-stimulated clones. A high responder clone was selected and used for further experiments in the project. The human VR1-CHOluc9aeq cells were maintained in the selection medium and passaged every 3-4 days at 1-2.5×10^5 cells/flask ([…]).
(2) Measurement of Ca^2+ Influx Using FDSS-3000
Human VR1-CHOluc9aeq cells were suspended in a culture medium which is the same as the selection medium except for G418 and seeded at a density of 1,000 cells per well into 384-well plates (black walled clear-base/Nalge Nunc International). Following the culture for 48 hrs the medium was changed to 2 μM Fluo-3 AM (Molecular Probes) and 0.02% Puronic F-127 in assay buffer (Hank's balanced salt solution (HBSS), 17 mM HEPES (pH7.4), 1 mM Probenecid, 0.1% BSA) and the cells were incubated for 60 min at 25° C. After washing twice with assay buffer the cells were incubated with a test compound or vehicle for 20 min at 25° C. Mobilization of cytoplasmic Ca^2+ was measured by FDSS-3000 (λex=488 nm, λem=540 nm/Hamamatsu Photonics) for 60 sec after the stimulation with 10 nM capsaicin. Integral R was calculated and compared with controls.

T1 sequence (Q8NER1 whole entry): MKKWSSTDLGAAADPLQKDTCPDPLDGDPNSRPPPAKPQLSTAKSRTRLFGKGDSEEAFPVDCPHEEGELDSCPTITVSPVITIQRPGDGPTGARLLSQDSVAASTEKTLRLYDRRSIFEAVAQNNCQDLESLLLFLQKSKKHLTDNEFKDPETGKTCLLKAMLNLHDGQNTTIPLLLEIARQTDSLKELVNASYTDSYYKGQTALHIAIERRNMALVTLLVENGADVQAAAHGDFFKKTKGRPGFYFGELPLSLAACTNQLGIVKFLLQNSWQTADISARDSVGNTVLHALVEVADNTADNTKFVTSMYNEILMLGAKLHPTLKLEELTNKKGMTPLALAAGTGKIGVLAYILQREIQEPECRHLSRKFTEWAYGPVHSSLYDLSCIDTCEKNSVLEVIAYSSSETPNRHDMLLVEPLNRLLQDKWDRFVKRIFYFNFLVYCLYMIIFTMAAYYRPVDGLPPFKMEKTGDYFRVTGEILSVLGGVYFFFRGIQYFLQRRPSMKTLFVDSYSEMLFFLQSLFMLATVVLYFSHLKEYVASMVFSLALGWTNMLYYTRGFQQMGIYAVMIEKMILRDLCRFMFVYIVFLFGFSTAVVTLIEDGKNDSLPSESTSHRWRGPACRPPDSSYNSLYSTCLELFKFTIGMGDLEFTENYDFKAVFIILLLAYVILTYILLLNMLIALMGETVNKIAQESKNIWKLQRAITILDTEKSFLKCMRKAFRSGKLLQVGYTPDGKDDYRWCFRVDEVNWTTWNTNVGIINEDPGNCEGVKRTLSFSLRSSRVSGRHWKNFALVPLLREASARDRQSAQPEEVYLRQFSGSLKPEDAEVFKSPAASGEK

For `O=C(Nc1ccc2c(c1)OCO2)Nc1cccc2c1CC(O)CC2` (stereo not drawn), the melting point was 209 to 211 °C. With `CC(=O)OC1Cc2cccc(NC(=O)NCc3ccc(C(F)(F)F)cc3)c2C1` (stereo not drawn) [1-2], the IC50 at human VR1 was under 100 nM. The same measure, in the same setting: next, `CC(C)(C)c1cc(NC(=O)Nc2cccc3c2CC(O)CC3)no1` (stereo not drawn) [1-2]: 100 to 500 nM. Same read-out and setting: to `COc1ccccc1C(=O)Nc1cccc2c1CC(O)CC2` (stereo not drawn) [1-2] belongs 500 to 1000 nM; to `O=C(Nc1ccc(Cl)c(C(F)(F)F)c1)Nc1cccc2c1CCC2O` (stereo not drawn) [1-3], under 100 nM. On the same count and under the same terms, to `O=C(Nc1cccc2c1CC(O)CC2)NC1CCc2ccccc21` (stereo not drawn) [1-3] belongs 100 to 500 nM; to `O=C(Nc1cccc2c1CC(O)CC2)c1ccc(C(F)(F)F)cc1` (stereo not drawn) [1-3], 100 to 500 nM. With `O=C(Cc1cccc(Br)c1)Nc1cccc2c1CC(O)CC2` (stereo not drawn) [1-4], the IC50 at human VR1 is 500 to 1000 nM. Regarding `O=C(Nc1ccc(Oc2ccncc2)cc1)Nc1cccc2c1CC(O)CC2` (stereo not drawn) [1-4], the concentration for half-maximal inhibition (IC50) at human VR1 fell in the range of 100 to 500 nM. With `O=C(NCc1cccnc1)Nc1cccc2c1CC(O)CC2` (stereo not drawn) [1-5], the IC50 at human VR1 was 500 to 1000 nM. As for `O=C(NCc1ccncc1)Nc1cccc2c1CC(O)CC2` (stereo not drawn) [1-6], the half-maximal inhibitory concentration (IC50) at human VR1 fell in the range of 500 to 1000 nM.

Regarding `O=C(Nc1cccc2c1CC(O)CC2)NC1CCCc2ccccc21` (stereo not drawn) [1-7], on human VR1, the IC50 was under 100 nM.

With `O=C(NCc1ccc(-c2csnn2)cc1)Nc1cccc2c1CC(O)CC2` (stereo not drawn) [1-8], the IC50 on human VR1 was under 100 nM. On to `CCOC1=CCc2c(cccc2NC(=O)NCc2ccc(C(F)(F)F)cc2)C1` [2-4], for which, at human VR1, the IC50 was 500 to 1000 nM.

`O=C1CCc2c(cccc2NC(=O)NCc2ccc(C(F)(F)F)cc2)C1` [2-5]: at human VR1, the 50% inhibitory concentration (IC50) is under 100 nM.

`O=C(NCc1ccc(C(F)(F)F)cc1)Nc1cccc2c1CCC(O)C2` (stereo not drawn) [2-6]: on human VR1, the IC50 is under 100 nM.

As to `O=C(Nc1ccc(Cl)c(C(F)(F)F)c1)Nc1cccc2c1CC(O)C(O)C2` (stereo not drawn) [2-7], the IC50 on human VR1 was under 100 nM. Take `COC1Cc2cccc(NC(=O)Nc3ccc(Cl)c(C(F)(F)F)c3)c2CC1O` (stereo not drawn) [2-8]: the half-inhibitory concentration (IC50) on human VR1 was 100 to 500 nM. The molecule `CC(=O)OC1Cc2cccc(NC(=O)Nc3ccc(Cl)c(C(F)(F)F)c3)c2C1` (stereo not drawn) [Example 1-1, 4-[({[4-Chloro-3-(trifluoromethyl)phenyl]amino}carbonyl)amino]-2,3-dihydro-1H-inden-2-yl acetate] registered a melting point of 207 to 209 °C.

On to `CC(=O)OC1Cc2cccc(NC(=O)Nc3ccc(Cl)c(C(F)(F)F)c3)c2C1` (stereo not drawn) [Example 1-1], for which the IC50 at human VR1 was in the range of 500 to 1000 nM. As to `O=C(Nc1ccc2c(c1)OCO2)Nc1cccc2c1CC(O)CC2` (stereo not drawn) [Example 1-1], on human VR1, the half-inhibitory concentration (IC50) lay in the range of 500 to 1000 nM.

`O=C(Nc1cccc2c1CC(O)CC2)c1cc2cc(Cl)ccc2[nH]1` (stereo not drawn) [Example 1-1]: the concentration for half-maximal inhibition (IC50) on human VR1 lay in the range of 100 to 500 nM. Regarding `CC(=O)OC1Cc2cccc(NC(=O)NCc3ccc(C(F)(F)F)cc3)c2C1` (stereo not drawn) [Example 1-2], the melting point was 166 to 168 °C. The same measure, in the same setting: next, `COc1ccccc1C(=O)Nc1cccc2c1CC(O)CC2` (stereo not drawn) [Example 1-2]: 184 to 186 °C; `O=C(Nc1ccc(Cl)c(C(F)(F)F)c1)Nc1cccc2c1CCC2O` (stereo not drawn) [Example 1-3]: 221 to 223 °C. The molecule `O=C(Nc1cccc2c1CC(O)CC2)NC1CCc2ccccc21` (stereo not drawn) [Example 1-3] had a melting point of 193 to 195 °C. In turn, `O=C(Nc1cccc2c1CC(O)CC2)c1ccc(C(F)(F)F)cc1` (stereo not drawn) [Example 1-3] displayed a melting point of 217 to 218 °C. `O=C(Nc1ccc(Oc2ccncc2)cc1)Nc1cccc2c1CC(O)CC2` (stereo not drawn) [Example 1-4] gave a melting point of 200 to 202 °C. Still for that read-out and setting: to `O=C(NCc1cccnc1)Nc1cccc2c1CC(O)CC2` (stereo not drawn) [Example 1-5] belongs 203 °C; to `O=C(NCc1ccncc1)Nc1cccc2c1CC(O)CC2` (stereo not drawn) [Example 1-6], 243 °C.

In turn, `O=C(Nc1cccc2c1CC(O)CC2)NC1CCCc2ccccc21` (stereo not drawn) [Example 1-7] gave a melting point of 216 °C. The same measure, in the same setting: next, `O=C(NCc1ccc(-c2csnn2)cc1)Nc1cccc2c1CC(O)CC2` (stereo not drawn) [Example 1-8]: 225 °C. As for `O=C(NCc1ccccn1)Nc1cccc2c1CC(O)CC2` (stereo not drawn) [Example 1-9], the melting point was 230 °C. The IC50 at human VR1 is 500 to 1000 nM.

As for `O=C(NCc1ccc2c(c1)OCO2)Nc1cccc2c1CC(O)CC2` (stereo not drawn) [Example 1-10], the melting point came out at 190 °C. On human VR1, the IC50 was under 100 nM.

As to `O=C(Nc1cccc(-c2ccncc2)c1)Nc1cccc2c1CC(O)CC2` (stereo not drawn) [Example 1-11], the melting point amounted to 208 °C. Besides, the IC50 on human VR1 is under 100 nM. Consider `O=C(NCc1ccc(C(F)(F)F)nc1)Nc1cccc2c1CC(O)CC2` (stereo not drawn) [Example 1-12], for which the melting point was in the range of 211 to 212 °C. For the same molecule, on human VR1, the half-inhibitory concentration (IC50) is under 100 nM. The molecule `Cl.O=C(NCc1ccc(C(F)(F)F)nc1)Nc1cccc2c1CC(O)CC2` (stereo not drawn) [Example 1-13] came in with a melting point of 204 to 205 °C. Besides, at human VR1, the IC50 is under 100 nM. Turning to `CCOC1=CCc2c(cccc2NC(=O)Nc2ccc(Cl)c(C(F)(F)F)c2)C1` [Example 2-1, N-[4Chloro-3-(trifluoromethyl)phenyl]-N′-(6-ethoxy-5,8-dihydronaphthalen-1-yl)urea], the melting point amounted to 216 °C. `O=C1CCc2c(cccc2NC(=O)Nc2ccc(Cl)c(C(F)(F)F)c2)C1` [Example 2-2, N-[4-Chloro-3-(trifluoromethyl)phenyl]-N′-(6-oxo-5,6,7,8-tetrahydronaphthalen-1-yl)urea] returned a melting point of 219 °C. On to `O=C1CCc2c(cccc2NC(=O)Nc2ccc(Cl)c(C(F)(F)F)c2)C1` [Example 2-2], for which the IC50 at human VR1 is under 100 nM. Consider `O=C(Nc1ccc(Cl)c(C(F)(F)F)c1)Nc1cccc2c1CCC(O)C2` (stereo not drawn) [Example 2-3, N-[4-Chloro-3-(trifluoromethyl)phenyl]-N′-(6-hydroxy-5,6,7,8-tetrahydronaphthalen-1-yl)urea], for which the melting point was 216 °C. In addition, the IC50 at human VR1 was under 100 nM. Molecule `CCOC1=CCc2c(cccc2NC(=O)NCc2ccc(C(F)(F)F)cc2)C1` [Example 2-4] returned a melting point of 235 °C. Molecule `O=C1CCc2c(cccc2NC(=O)NCc2ccc(C(F)(F)F)cc2)C1` [Example 2-5] came in with a melting point of 221 °C. On the same count and under the same terms, to `O=C(NCc1ccc(C(F)(F)F)cc1)Nc1cccc2c1CCC(O)C2` (stereo not drawn) [Example 2-6] belongs 205 °C. `COC1Cc2c(cccc2NC(=O)Nc2ccc(Cl)c(C(F)(F)F)c2)CC1O` (stereo not drawn) [Example 2-9] registered a melting point of 112 to 127 °C. For the same molecule, the IC50 at human VR1 was under 100 nM. Regarding `CC1CCc2cccc(NC(=O)Nc3ccc(Cl)c(C(F)(F)F)c3)c2C1` (stereo not drawn) [Example 3-1], the 50% inhibitory concentration (IC50) at human VR1 is under 100 nM. The same measure, in the same setting: to `O=C(Nc1ccc(Cl)c(C(F)(F)F)c1)Nc1cccc2c1CC(CO)CC2` (stereo not drawn) [Example 4-1, N-[4-Chloro-3-(trifluoromethyl)phenyl]-N′-[7-(hydroxymethyl)-5,6,7,8-tetrahydronaphthalen-1-yl]urea] belongs under 100 nM.
